Test results: ChEMBL document CHEMBL1201862, “PubChem BioAssay data set” (2004)
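The compound was tested at five concentrations on cells cultured in 96-well plates, with a 48-hour exposure period. Here, GI50 denotes the concentration required for 50% inhibition of growth.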 The source made the active and inactive calls. No stated cut-off is given here; in the data, active = GI50 up to about 1.1 µM and inactive = higher.

Assays:
Assay in all cases: inhibition of tumour cell growth, NCI panel, 48 h
[1] = tested on: A549
[2] = tested on: CAKI-1
[3] = tested on: COLO 205
[4] = tested on: EKVX
[5] = tested on: HCC 2998
[6] = tested on: HL-60
[7] = tested on: HOP-62
[8] = tested on: HT-29
[9] = tested on: IGROV-1
[10] = tested on: MOLT-4
[11] = tested on: NCI-H23
[12] = tested on: NCI-H460
[13] = tested on: OVCAR-5
[14] = tested on: SF-268
[15] = tested on: SF-295
[16] = tested on: SF-539
[17] = tested on: SK-MEL-2
[18] = tested on: SNB-19
[19] = tested on: U-251
[20] = tested on: MCF7

**Q.** What does the source list for `COc1ccc2c(c1)c(=O)c1ccccc1n2/C=C/C(=O)O`?
**A.** GI50 [1]: > 100 µM (inactive); GI50 [2]: > 100 µM (inactive); GI50 [3]: > 56.8 µM (inactive); GI50 [4]: > 100 µM (inactive); GI50 [5]: > 100 µM (inactive); GI50 [6]: > 46.8 µM (inactive); GI50 [7]: > 100 µM (inactive); GI50 [8]: > 74.8 µM (inactive); GI50 [9]: > 100 µM (inactive); GI50 [10]: > 100 µM (inactive); GI50 [11]: > 100 µM (inactive); GI50 [12]: > 100 µM (inactive); GI50 [13]: > 100 µM (inactive); GI50 [14]: > 68.2 µM (inactive); GI50 [15]: > 100 µM (inactive); GI50 [16]: > 100 µM (inactive); GI50 [17]: > 100 µM (inactive); GI50 [18]: > 100 µM (inactive); GI50 [19]: > 27 µM (inactive)

**Q.** Which results are given for `C=C(Br)CN(C)CC(=C)Br`?
**A.** GI50 [1]: > 100 µM (inactive); GI50 [2]: > 100 µM (inactive); GI50 [3]: > 100 µM (inactive); GI50 [4]: > 100 µM (inactive); GI50 [6]: > 100 µM (inactive); GI50 [7]: > 100 µM (inactive); GI50 [8]: > 100 µM (inactive); GI50 [9]: > 100 µM (inactive); GI50 [20]: > 100 µM (inactive); GI50 [10]: > 100 µM (inactive); GI50 [11]: > 100 µM (inactive); GI50 [12]: > 100 µM (inactive); GI50 [13]: > 100 µM (inactive); GI50 [14]: > 100 µM (inactive); GI50 [15]: > 100 µM (inactive); GI50 [17]: > 100 µM (inactive); GI50 [18]: > 100 µM (inactive); GI50 [19]: > 100 µM (inactive)

**Q.** For `O=C(CC/C(C/C(=N/O)c1ccc(F)cc1)=N/O)N(Cc1ccccc1)Cc1ccccc1`, which GI50 [1] is on record?
**A.** > 100 µM (inactive)

**Q.** What about the GI50 [2] of the same compound?
**A.** > 100 µM (inactive)

**Q.** What about the GI50 [3] of the same compound?
**A.** 73.8 µM (inactive)

**Q.** And the GI50 [4]?
**A.** 58.6 µM (inactive)

**Q.** And the GI50 [5]?
**A.** > 100 µM (inactive)

**Q.** And the GI50 [6]?
**A.** > 100 µM (inactive)

**Q.** And the GI50 [7]?
**A.** > 100 µM (inactive)

**Q.** And the GI50 [8]?
**A.** > 100 µM (inactive)

**Q.** What about the GI50 [9] of the same compound?
**A.** > 100 µM (inactive)

**Q.** And the GI50 [10]?
**A.** > 100 µM (inactive)

**Q.** And the GI50 [11]?
**A.** > 100 µM (inactive)

**Q.** What about the GI50 [12] of the same compound?
**A.** > 100 µM (inactive)

**Q.** And the GI50 [13]?
**A.** > 100 µM (inactive)

**Q.** What about the GI50 [14] of the same compound?
**A.** > 100 µM (inactive)

**Q.** And the GI50 [15]?
**A.** > 100 µM (inactive)

**Q.** What about the GI50 [16] of the same compound?
**A.** > 100 µM (inactive)

**Q.** What about the GI50 [17] of the same compound?
**A.** > 100 µM (inactive)

**Q.** And the GI50 [18]?
**A.** > 100 µM (inactive)

**Q.** What about the GI50 [19] of the same compound?
**A.** > 100 µM (inactive)

**Q.** Which results are given for `COc1ccc(CCn2ccc(C)n2)c(OC)c1`?
**A.** GI50 [1]: > 100 µM (inactive); GI50 [2]: > 100 µM (inactive); GI50 [3]: > 100 µM (inactive); GI50 [4]: 47.2 µM (inactive); GI50 [7]: > 100 µM (inactive); GI50 [8]: > 100 µM (inactive); GI50 [9]: > 100 µM (inactive); GI50 [20]: > 100 µM (inactive); GI50 [10]: > 100 µM (inactive); GI50 [11]: > 100 µM (inactive); GI50 [12]: > 100 µM (inactive); GI50 [13]: > 100 µM (inactive); GI50 [14]: > 100 µM (inactive); GI50 [15]: > 100 µM (inactive); GI50 [16]: > 100 µM (inactive); GI50 [18]: > 100 µM (inactive); GI50 [19]: > 100 µM (inactive)

**Q.** How did the GI50 [1] turn out when `CCC(C)C(=O)c1c(O)c(C/C=C(\C)CCC=C(C)C)c(O)c2c(C(O)CC)cc(=O)oc12` (configuration not stated) was run?
**A.** 2.72 µM (inactive)

**Q.** And the GI50 [2]?
**A.** 2.23 µM (inactive)

**Q.** What about the GI50 [3] of the same compound?
**A.** 1.71 µM (inactive)

**Q.** What about the GI50 [4] of the same compound?
**A.** 3.6 µM (inactive)

**Q.** What about the GI50 [5] of the same compound?
**A.** 0.358 µM (active)

**Q.** What about the GI50 [6] of the same compound?
**A.** 1.46 µM (inactive)

**Q.** What about the GI50 [7] of the same compound?
**A.** 1.95 µM (inactive)

**Q.** What about the GI50 [8] of the same compound?
**A.** 1.27 µM (inactive)

**Q.** And the GI50 [9]?
**A.** 2.68 µM (inactive)

**Q.** And the GI50 [10]?
**A.** 1.59 µM (inactive)

**Q.** What about the GI50 [11] of the same compound?
**A.** 1.56 µM (inactive)

**Q.** What about the GI50 [12] of the same compound?
**A.** 2.3 µM (inactive)

**Q.** What about the GI50 [13] of the same compound?
**A.** 5.28 µM (inactive)

**Q.** And the GI50 [14]?
**A.** 1.9 µM (inactive)

**Q.** What about the GI50 [15] of the same compound?
**A.** 2.81 µM (inactive)

**Q.** What about the GI50 [16] of the same compound?
**A.** 1.67 µM (inactive)

**Q.** And the GI50 [17]?
**A.** 1.62 µM (inactive)

**Q.** And the GI50 [18]?
**A.** 4.23 µM (inactive)

**Q.** And the GI50 [19]?
**A.** 1.51 µM (inactive)

**Q.** Which results are given for `NC(=O)c1oc([N+](=O)[O-])c(-c2ccccc2)c1-c1ccccc1`?
**A.** GI50 [1]: 21.1 µM (inactive); GI50 [2]: 18.4 µM (inactive); GI50 [3]: 16.8 µM (inactive); GI50 [4]: 17.6 µM (inactive); GI50 [6]: 25.1 µM (inactive); GI50 [7]: 25.8 µM (inactive); GI50 [8]: 27.2 µM (inactive); GI50 [9]: 12.9 µM (inactive); GI50 [20]: 29.5 µM (inactive); GI50 [10]: 17.1 µM (inactive); GI50 [11]: 15.4 µM (inactive); GI50 [12]: 26.2 µM (inactive); GI50 [13]: 26.1 µM (inactive); GI50 [14]: 37.6 µM (inactive); GI50 [15]: 15.8 µM (inactive); GI50 [16]: 18.5 µM (inactive); GI50 [17]: 15.6 µM (inactive); GI50 [18]: 38.5 µM (inactive); GI50 [19]: 24.3 µM (inactive)

**Q.** Which GI50 [1] does the source give for `CC(=O)C1CC(C)=CCC12C(=O)Nc1ccccc12` (configuration not stated) here?
**A.** > 100 µM (inactive)

**Q.** What about the GI50 [2] of the same compound?
**A.** > 100 µM (inactive)

**Q.** What about the GI50 [3] of the same compound?
**A.** > 100 µM (inactive)

**Q.** And the GI50 [4]?
**A.** > 100 µM (inactive)

**Q.** What about the GI50 [5] of the same compound?
**A.** > 100 µM (inactive)

**Q.** What about the GI50 [6] of the same compound?
**A.** > 100 µM (inactive)

**Q.** And the GI50 [7]?
**A.** > 100 µM (inactive)

**Q.** What about the GI50 [8] of the same compound?
**A.** > 100 µM (inactive)

**Q.** And the GI50 [9]?
**A.** > 100 µM (inactive)

**Q.** And the GI50 [10]?
**A.** 43 µM (inactive)

**Q.** What about the GI50 [11] of the same compound?
**A.** > 100 µM (inactive)

**Q.** What about the GI50 [12] of the same compound?
**A.** > 100 µM (inactive)

**Q.** What about the GI50 [13] of the same compound?
**A.** > 100 µM (inactive)

**Q.** And the GI50 [14]?
**A.** > 100 µM (inactive)

**Q.** What about the GI50 [15] of the same compound?
**A.** > 100 µM (inactive)

**Q.** And the GI50 [16]?
**A.** > 100 µM (inactive)

**Q.** And the GI50 [17]?
**A.** > 100 µM (inactive)

**Q.** What about the GI50 [18] of the same compound?
**A.** > 100 µM (inactive)

**Q.** What about the GI50 [19] of the same compound?
**A.** > 100 µM (inactive)

**Q.** How did the GI50 [1] turn out when `Cc1ccc2oc(=O)c(-c3ccccc3)nc2c1` was run?
**A.** 26 µM (inactive)

**Q.** And the GI50 [2]?
**A.** 28.9 µM (inactive)

**Q.** And the GI50 [3]?
**A.** 24.5 µM (inactive)

**Q.** And the GI50 [4]?
**A.** 39.5 µM (inactive)

**Q.** And the GI50 [5]?
**A.** 19.9 µM (inactive)

**Q.** What about the GI50 [6] of the same compound?
**A.** > 10 µM (inactive)

**Q.** And the GI50 [7]?
**A.** 36.7 µM (inactive)

**Q.** What about the GI50 [8] of the same compound?
**A.** 45.6 µM (inactive)

**Q.** And the GI50 [10]?
**A.** 10.7 µM (inactive)

**Q.** And the GI50 [11]?
**A.** 24.7 µM (inactive)

**Q.** And the GI50 [12]?
**A.** 36.3 µM (inactive)

**Q.** What about the GI50 [13] of the same compound?
**A.** 39.4 µM (inactive)

**Q.** And the GI50 [14]?
**A.** 25.2 µM (inactive)

**Q.** And the GI50 [15]?
**A.** 40.5 µM (inactive)

**Q.** What about the GI50 [16] of the same compound?
**A.** 18.2 µM (inactive)

**Q.** What about the GI50 [17] of the same compound?
**A.** 21 µM (inactive)

**Q.** And the GI50 [18]?
**A.** 38.9 µM (inactive)
